From patent US20260297081A1, “COMPOUNDS AND METHODS OF TREATING CANCERS” (Cullgen Inc., priority 2023, published 2026)

Biological target: CDK4 (Homo sapiens, UniProt P11802+Q16531)
Experiment: CDK4 percentage degradation in Calu-1 cells (Table 6)
Format: cell-based
Set-up: Cells that express cyclin D1-3 and CDK4/6 proteins were treated with heterobifunctional compounds; endogenous in cells; host or cells: Calu-1
Conditions: 16 hours; for inhibition at 0.04 µM: 40 nM; for inhibition at 0.2 µM: 200 nM
Method in brief: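 Percentage degradation of Cyclin D1 and CDK4 derived from densitometry of ECL Western blots on lysates of Calu-1 cells. Treatment was 16 h with compound at either 40 nM or 200 nM.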

CDK4, sequence (P11802 2-303 limits assumed): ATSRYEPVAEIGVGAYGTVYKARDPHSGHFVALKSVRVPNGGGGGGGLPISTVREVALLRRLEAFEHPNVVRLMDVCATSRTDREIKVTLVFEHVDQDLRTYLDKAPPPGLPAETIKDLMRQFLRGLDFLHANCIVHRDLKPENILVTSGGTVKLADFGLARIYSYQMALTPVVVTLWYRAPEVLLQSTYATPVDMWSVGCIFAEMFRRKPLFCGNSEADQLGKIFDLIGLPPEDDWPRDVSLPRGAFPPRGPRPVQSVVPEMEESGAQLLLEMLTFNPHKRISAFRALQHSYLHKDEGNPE
CDK4, sequence (P24385 whole entry partner): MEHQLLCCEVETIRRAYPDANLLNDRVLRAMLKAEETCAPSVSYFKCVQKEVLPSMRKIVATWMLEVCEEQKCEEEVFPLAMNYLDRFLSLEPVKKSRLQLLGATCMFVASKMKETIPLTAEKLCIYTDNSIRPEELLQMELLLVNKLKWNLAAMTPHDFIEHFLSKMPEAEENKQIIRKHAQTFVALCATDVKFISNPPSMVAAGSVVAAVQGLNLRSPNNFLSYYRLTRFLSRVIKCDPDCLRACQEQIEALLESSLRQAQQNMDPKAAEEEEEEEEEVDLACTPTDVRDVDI
CDK4, sequence (Q16531 2-1140 limits assumed): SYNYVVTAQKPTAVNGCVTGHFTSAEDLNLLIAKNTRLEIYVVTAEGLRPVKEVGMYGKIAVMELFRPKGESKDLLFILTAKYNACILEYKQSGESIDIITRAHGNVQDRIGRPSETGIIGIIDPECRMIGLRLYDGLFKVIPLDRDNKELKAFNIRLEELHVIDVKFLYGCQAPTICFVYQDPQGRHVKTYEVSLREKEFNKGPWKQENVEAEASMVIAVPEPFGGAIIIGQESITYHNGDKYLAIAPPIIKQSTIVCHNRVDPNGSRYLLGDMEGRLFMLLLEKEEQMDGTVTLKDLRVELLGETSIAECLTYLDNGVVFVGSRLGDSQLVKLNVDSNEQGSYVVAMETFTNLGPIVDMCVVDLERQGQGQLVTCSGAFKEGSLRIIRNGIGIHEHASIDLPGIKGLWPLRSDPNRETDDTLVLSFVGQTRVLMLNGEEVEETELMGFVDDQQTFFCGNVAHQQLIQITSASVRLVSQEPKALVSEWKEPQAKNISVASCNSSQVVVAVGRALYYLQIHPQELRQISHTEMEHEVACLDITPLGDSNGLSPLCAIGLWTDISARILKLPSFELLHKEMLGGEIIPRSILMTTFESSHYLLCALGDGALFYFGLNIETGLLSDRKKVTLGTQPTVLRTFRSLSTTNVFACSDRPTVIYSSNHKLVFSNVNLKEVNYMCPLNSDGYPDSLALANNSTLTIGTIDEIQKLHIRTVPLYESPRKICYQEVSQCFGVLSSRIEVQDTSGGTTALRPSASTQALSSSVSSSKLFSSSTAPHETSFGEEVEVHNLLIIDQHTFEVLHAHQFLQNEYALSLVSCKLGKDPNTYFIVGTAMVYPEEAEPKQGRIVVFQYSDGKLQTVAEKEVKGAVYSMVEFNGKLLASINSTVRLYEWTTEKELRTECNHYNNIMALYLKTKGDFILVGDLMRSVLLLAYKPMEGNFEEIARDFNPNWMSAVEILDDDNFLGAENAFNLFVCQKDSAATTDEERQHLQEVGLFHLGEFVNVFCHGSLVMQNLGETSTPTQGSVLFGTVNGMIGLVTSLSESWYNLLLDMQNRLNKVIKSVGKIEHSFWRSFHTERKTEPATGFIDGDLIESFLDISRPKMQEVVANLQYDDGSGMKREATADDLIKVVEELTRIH

inhibition at 0.04 µM [%]	inhibition at 0.2 µM [%]	SMILES
< 30	< 30	CNc1ccc(C(=O)Nc2ccc(N)nn2)c(NCCCCCNC(=O)CN2CCN(c3ccc(Nc4ncc5c(C)c(C(C)=O)c(=O)n(C6CCCC6)c5n4)nc3)CC2)n1 [CPD-104, 2-((5-(2-(4-(6-((6-Acetyl-8-cyclopentyl-5-methyl-7-oxo-7,8-dihydropyrido[2,3-d]pyrimidin-2-yl)amino)pyridin-3-yl)piperazin-1-yl)acetamido)pentyl)amino)-N-(6-aminopyridazin-3-yl)-6-(methylamino)nicotinamide]
< 30	50 to 80	CNc1ccc(C(=O)Nc2ccc(C)nn2)c(NCCCCCNC(=O)CN2CCN(c3ccc(Nc4ncc5c(C)c(C(C)=O)c(=O)n(C6CCCC6)c5n4)nc3)CC2)n1 [CPD-105, 2-((5-(2-(4-(6-((6-Acetyl-8-cyclopentyl-5-methyl-7-oxo-7,8-dihydropyrido[2,3-d]pyrimidin-2-yl)amino)pyridin-3-yl)piperazin-1-yl)acetamido)pentyl)amino)-6-(methylamino)-N-(6-methylpyridazin-3-yl)nicotinamide]
30 to 50	30 to 50	CNc1ccc(C(=O)Nc2ccc(OC)nn2)c(NCCCCCNC(=O)CN2CCN(c3ccc(Nc4ncc5c(C)c(C(C)=O)c(=O)n(C6CCCC6)c5n4)nc3)CC2)n1 [CPD-108, 2-((5-(2-(4-(6-((6-Acetyl-8-cyclopentyl-5-methyl-7-oxo-7,8-dihydropyrido[2,3-d]pyrimidin-2-yl)amino)pyridin-3-yl)piperazin-1-yl)acetamido)pentyl)amino)-N-(6-methoxypyridazin-3-yl)-6-(methylamino)nicotinamide]
< 30	50 to 80	CNc1ccc(NC(=O)c2ccc(NC)nc2NCCCCCNC(=O)CN2CCN(c3ccc(Nc4ncc5c(C)c(C(C)=O)c(=O)n(C6CCCC6)c5n4)nc3)CC2)nn1 [CPD-110, 2-((5-(2-(4-(6-((6-Acetyl-8-cyclopentyl-5-methyl-7-oxo-7,8-dihydropyrido[2,3-d]pyrimidin-2-yl)amino)pyridin-3-yl)piperazin-1-yl)acetamido)pentyl)amino)-6-(methylamino)-N-(6-(methylamino)pyridazin-3-yl)nicotinamide]
30 to 50	30 to 50	CNc1ccc(C(=O)Nc2ccc(C)c(OC)n2)c(NCCCCCNC(=O)CN2CCN(c3ccc(Nc4ncc5c(C)c(C(C)=O)c(=O)n(C6CCCC6)c5n4)nc3)CC2)n1 [CPD-116, 2-((5-(2-(4-(6-((6-Acetyl-8-cyclopentyl-5-methyl-7-oxo-7,8-dihydropyrido[2,3-d]pyrimidin-2-yl)amino)pyridin-3-yl)piperazin-1-yl)acetamido)pentyl)amino)-N-(6-methoxy-5-methylpyridin-2-yl)-6-(methylamino)nicotinamide]

The next lines start with the compound.

SMILES	inhibition at 0.04 µM [%]	inhibition at 0.2 µM [%]
CNc1ccc(C(=O)Nc2ccc(N(C)C)nn2)c(NC2CCN(CCNC(=O)CN3CCN(c4ccc(Nc5ncc6c(C)c(C(C)=O)c(=O)n(C7CCCC7)c6n5)nc4)CC3)C2)n1 (stereo not drawn) [CPD-106, 2-((1-(2-(2-(4-(6-((6-Acetyl-8-cyclopentyl-5-methyl-7-oxo-7,8-dihydropyrido[2,3-d]pyrimidin-2-yl)amino)pyridin-3-yl)piperazin-1-yl)acetamido)ethyl)pyrrolidin-3-yl)amino)-N-(6-(dimethylamino)pyridazin-3-yl)-6-(methylamino)nicotinamide]	30 to 50	50 to 80
CNc1ccc(C(=O)Nc2ccc(N(C)C)nn2)c(NC2CN(CCNC(=O)CN3CCN(c4ccc(Nc5ncc6c(C)c(C(C)=O)c(=O)n(C7CCCC7)c6n5)nc4)CC3)C2)n1 [CPD-107, 2-((1-(2-(2-(4-(6-((6-Acetyl-8-cyclopentyl-5-methyl-7-oxo-7,8-dihydropyrido[2,3-d]pyrimidin-2-yl)amino)pyridin-3-yl)piperazin-1-yl)acetamido)ethyl)azetidin-3-yl)amino)-N-(6-(dimethylamino)pyridazin-3-yl)-6-(methylamino)nicotinamide]	< 30	< 30
CNc1ccc(C(=O)Nc2ccc(C)c(C)n2)c(NCCCCCNC(=O)CN2CCN(c3ccc(Nc4ncc5c(C)c(C(C)=O)c(=O)n(C6CCCC6)c5n4)nc3)CC2)n1 [CPD-109, 2-((5-(2-(4-(6-((6-Acetyl-8-cyclopentyl-5-methyl-7-oxo-7,8-dihydropyrido[2,3-d]pyrimidin-2-yl)amino)pyridin-3-yl)piperazin-1-yl)acetamido)pentyl)amino)-N-(5,6-dimethylpyridin-2-yl)-6-(methylamino)nicotinamide]	50 to 80	50 to 80
CNc1ccc(C(=O)Nc2ccc(C)c(C(C)C)n2)c(NCCCCCNC(=O)CN2CCN(c3ccc(Nc4ncc5c(C)c(C(C)=O)c(=O)n(C6CCCC6)c5n4)nc3)CC2)n1 [CPD-111, 2-((5-(2-(4-(6-((6-Acetyl-8-cyclopentyl-5-methyl-7-oxo-7,8-dihydropyrido[2,3-d]pyrimidin-2-yl)amino)pyridin-3-yl)piperazin-1-yl)acetamido)pentyl)amino)-N-(6-isopropyl-5-methylpyridin-2-yl)-6-(methylamino)nicotinamide]	< 30	50 to 80
CNc1ccc(C(=O)Nc2ccc(Cl)c(C3CC3)n2)c(NCCCCCNC(=O)CN2CCN(c3ccc(Nc4ncc5c(C)c(C(C)=O)c(=O)n(C6CCCC6)c5n4)nc3)CC2)n1 [CPD-112, 2-((5-(2-(4-(6-((6-Acetyl-8-cyclopentyl-5-methyl-7-oxo-7,8-dihydropyrido[2,3-d]pyrimidin-2-yl)amino)pyridin-3-yl)piperazin-1-yl)acetamido)pentyl)amino)-N-(5-chloro-6-cyclopropylpyridin-2-yl)-6-(methylamino)nicotinamide]	< 30	< 30
CNc1ccc(C(=O)Nc2ccc(F)c(C3CC3)n2)c(NCCCCCNC(=O)CN2CCN(c3ccc(Nc4ncc5c(C)c(C(C)=O)c(=O)n(C6CCCC6)c5n4)nc3)CC2)n1 [CPD-113, 2-((5-(2-(4-(6-((6-Acetyl-8-cyclopentyl-5-methyl-7-oxo-7,8-dihydropyrido[2,3-d]pyrimidin-2-yl)amino)pyridin-3-yl)piperazin-1-yl)acetamido)pentyl)amino)-N-(6-cyclopropyl-5-fluoropyridin-2-yl)-6-(methylamino)nicotinamide]	30 to 50	50 to 80
CNc1ccc(C(=O)Nc2nc(C3CC3)ccc2F)c(NC2CC3(CC(NC(=O)CN4CCN(c5ccc(Nc6ncc7c(C)c(C(C)=O)c(=O)n(C8CCCC8)c7n6)nc5)CC4)C3)C2)n1 (stereo not drawn) [CPD-114, 2-((6-(2-(4-(6-((6-Acetyl-8-cyclopentyl-5-methyl-7-oxo-7,8-dihydropyrido[2,3-d]pyrimidin-2-yl)amino)pyridin-3-yl)piperazin-1-yl)acetamido)spiro[3.3]heptan-2-yl)amino)-N-(6-cyclopropyl-3-fluoropyridin-2-yl)-6-(methylamino)nicotinamide]	< 30	< 30
